target: T1, PDE10A2 (Homo sapiens, UniProt Q9Y233); test: PDE10A2 Scintillation Proximity Assay (SPA), [3H]-cGMP hydrolysis; format: biochemical; conditions: catalytic domain of human PDE10A2 (S449-D789), 0.25 nM enzyme, 50 nM cGMP + 50 nM [3H]-cGMP, 30 minutes at room temperature; read-out: PDE10A2 inhibition IC50
T1 construct: residues serine 449 to aspartate 789; His6 (H6) with Gateway linker and thrombin cleavage site (N, cleaved yes); made in house; host or cells: E. coli BL21(DE3) pLysS
Description: The following tests were carried out in order to determine the activity of the compounds of the present invention. PDE10 activity of the compounds of the present invention is determined using a Scintillation Proximity Assay (SPA)-based method similar to the one previously described (Fawcett, L. et al., ProcNatl Acad Sci USA (2000) 97(7):3702-3707).
PDE10A1 and PDE10A2 are two splice variants of PDE10A. There are these 2 splice variants known, which differ in the N-terminal part of the protein. The catalytic domains of PDE10A1 and PDE10A2 are identical. The assay for PDE10A2 described below is therefore also representative for PDE10A1 and also for PDE10A in general.
The PDE10A2 assay was performed in a two step procedure in 96-well micro titer plates. The reaction mixture of 80 μl contained 20 mM HEPES/10 mM MgCl2/[…] (pH 7.5), 50 nM cGMP (Sigma) and 50 nM [^3H]-cGMP (GE Healthcare), 0.25 nM PDE10A2 with or without a specific test compound. A range of concentrations of the potential inhibitor was used to generate data for calculating the concentration of inhibitor resulting in 50% of the effect (e.g. IC50, the concentration of the competitor inhibiting PDE10A2 activity 50%). Non-specific activity was tested without the enzyme. The reaction was initiated by addition of the substrate solution (cGMP and [^3H]-cGMP) and allowed to progress for 30 minutes at room temperature. The reaction was terminated by transferring 50 μl of the reaction mixture into an OptiPlate (Perkin Elmer) containing 25 μl of YSi-SPA scintillation beads (GE Healthcare) in 18 mM zinc sulphate solution (stop reagent). After 1 h under shaking, the plate was centrifuged one minute at 1000 rpm to allow beads to settle. Afterwards, radioactive counts were measured on a Perkin Elmer TopCount Scintillation plate reader.
The catalytic domain of human PDE10A2, residues serine 449 to aspartate 789, was amplified by PCR using cDNA (Origene) and the oligonucleotides 5′-GGGGACAAGTTTGT […]-3′ (with AttB1 recombination site in bold and thrombin protease cleavage site in italics) and 5′-[…]-3′ (with AttB2 recombination site in bold) which conferred Gateway recombination sites. The PCR product was used in a BP recombination reaction with pDONR221 to generate pENTR Thm-PDE10A2(S449-D789) which was DNA sequence verified and then used in an LR recombination reaction with a Gateway modified version of pET11a. The resulting expression vector, placT7.2H6-(gwl)-Thm-PDE10A2(S449-D789) was DNA sequence confirmed and transformed into E. coli strain BL21(DE3) pLysS and recombinant protein was produced in TB medium at 20° C. by induction to a final IPTG concentration of 0.5 mM at an optical density of 1.0 at 600 nm for 20 hours. About 30% of the protein was in the soluble fraction of the cell homogenate. The protein was purified using sequential chromatography on Ni-NTA and HiTrapQ/HiTrapS. After thrombin digest at room temperature a HiTrapChelating/HiTrap Benzamindin chromatography removed impurities, uncleaved protein and thrombin. Final purification of PDE10A2(S449-D789) was performed on a Superdex 75 size exclusion chromatography equilibrated with 25 mM HEPES pH 8.4, 0.15 M NaCl. The yield of pure protein was 2 mg/liter of culture volume is relatively low. The purity of the protein was >95%, monomeric and monodisperse as shown by SDS-PAGE, HPLC and analytical ultracentrifugation.

T1 sequence (Q9Y233 715-1055): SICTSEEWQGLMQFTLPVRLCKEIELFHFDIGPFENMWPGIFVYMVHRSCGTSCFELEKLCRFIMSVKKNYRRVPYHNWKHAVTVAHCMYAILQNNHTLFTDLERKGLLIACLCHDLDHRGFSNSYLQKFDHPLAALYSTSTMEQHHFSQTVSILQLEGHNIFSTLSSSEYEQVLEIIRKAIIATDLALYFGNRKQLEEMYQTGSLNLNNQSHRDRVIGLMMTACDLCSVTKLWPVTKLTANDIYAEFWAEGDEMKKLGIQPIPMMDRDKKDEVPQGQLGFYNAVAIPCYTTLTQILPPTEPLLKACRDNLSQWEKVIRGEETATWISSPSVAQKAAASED

Row | IC50 [µM] | Structure (SMILES)
1 | 8.1 | O=c1ccn(-c2ccncc2)nc1-c1ccnn1-c1cccc(Cl)n1 [Example 1, 3-[2-(6-Chloro-pyridin-2-yl)-2H-pyrazol-3-yl]-1-pyridin-4-yl-1H-pyridazin-4-one]
2 | 0.319 | N#Cc1cccc(-n2nccc2-c2nn(-c3ccncc3)ccc2=O)c1 [Example 3, 3-[5-(4-Oxo-1-pyridin-4-yl-1,4-dihydro-pyridazin-3-yl)-pyrazol-1-yl]-benzonitrile]
3 | 0.115 | O=c1ccn(-c2ccncc2)nc1-c1ccnn1-c1ccccc1F [Example 4, 3-[2-(2-Fluoro-phenyl)-2H-pyrazol-3-yl]-1-pyridin-4-yl-1H-pyridazin-4-one]
4 | 0.899 | O=C(O)c1cccc(-n2nccc2-c2nn(-c3ccncc3)ccc2=O)c1 [Example 5, 3-[5-(4-Oxo-1-pyridin-4-yl-1,4-dihydro-pyridazin-3-yl)-pyrazol-1-yl]-benzoic acid]
5 | 0.188 | O=c1ccn(-c2ccncc2)nc1-c1ccnn1-c1ccc(Cl)cc1 [Example 6, 3-[2-(4-Chloro-phenyl)-2H-pyrazol-3-yl]-1-pyridin-4-yl-1H-pyridazin-4-one]
6 | 0.183 | O=c1ccn(-c2ccncc2)nc1-c1ccnn1-c1ccc(F)cc1 [Example 7, 3-[2-(4-Fluoro-phenyl)-2H-pyrazol-3-yl]-1-pyridin-4-yl-1H-pyridazin-4-one]
7 | 6.33 | NS(=O)(=O)c1ccc(-n2nccc2-c2nn(-c3ccncc3)ccc2=O)cc1 [Example 8, 4-[5-(4-Oxo-1-pyridin-4-yl-1,4-dihydro-pyridazin-3-yl)-pyrazol-1-yl]-benzenesulfonamide]
8 | 0.048 | COC(=O)c1cccc(-n2nccc2-c2nn(-c3ccncc3)ccc2=O)c1 [Example 10, 3-[5-(4-Oxo-1-pyridin-4-yl-1,4-dihydro-pyridazin-3-yl)-pyrazol-1-yl]-benzoic acid methyl ester]
9 | 0.103 | Cc1ccc(-n2nccc2-c2nn(-c3ccncc3)ccc2=O)cc1 [Example 11, 1-Pyridin-4-yl-3-(2-p-tolyl-2H-pyrazol-3-yl)-1H-pyridazin-4-one]
10 | 0.228 | O=c1ccn(-c2ccncc2)nc1-c1ccnn1-c1ccccc1Cl [Example 12, 3-[2-(2-Chloro-phenyl)-2H-pyrazol-3-yl]-1-pyridin-4-yl-1H-pyridazin-4-one]
11 | 0.011 | O=c1ccn(-c2ccnc(Cl)c2)nc1-c1ccnn1-c1cccc2ccccc12 [Example 13, 1-(2-Chloro-pyridin-4-yl)-3-(2-naphthalen-1-yl-2H-pyrazol-3-yl)-1H-pyridazin-4-one]
12 | 0.08 | O=c1ccn(-c2ccncc2)nc1-c1ccnn1-c1ccc2c(c1)OCCO2 [Example 15, 3-[2-(2,3-Dihydro-benzo[1,4]dioxin-6-yl)-2H-pyrazol-3-yl]-1-pyridin-4-yl-1H-pyridazin-4-one]
13 | 0.015 | CS(=O)(=O)c1cc(-n2ccc(=O)c(-c3ccnn3-c3cccc4ccccc34)n2)ccn1 [Example 16, 1-(2-Methanesulfonyl-pyridin-4-yl)-3-(2-naphthalen-1-yl-2H-pyrazol-3-yl)-1H-pyridazin-4-one]
14 | 0.096 | CS(=O)(=O)c1cc(-n2ccc(=O)c(-c3ccnn3-c3ccc4c(c3)OCCO4)n2)ccn1 [Example 17, 3-[2-(2,3-Dihydro-benzo[1,4]dioxin-6-yl)-2H-pyrazol-3-yl]-1-(2-methanesulfonyl-pyridin-4-yl)-1H-pyridazin-4-one]
15 | 0.14 | O=c1ccn(-c2ccncc2)nc1-c1ccnn1-c1cccc(Cl)c1 [Example 18, 3-[2-(3-Chloro-phenyl)-2H-pyrazol-3-yl]-1-pyridin-4-yl-1H-pyridazin-4-one]
16 | 0.417 | Cc1cc(-n2nccc2-c2nn(-c3ccncc3)ccc2=O)ccn1 [Example 19, 3-[2-(2-Methyl-pyridin-4-yl)-2H-pyrazol-3-yl]-1-pyridin-4-yl-1H-pyridazin-4-one]

Row | IC50 [µM] | Structure (SMILES)
17 | 0.009 | O=c1ccn(-c2ccncc2)nc1-c1ccnn1-c1ccnc2ccccc12 [Example 20, 1-Pyridin-4-yl-3-(2-quinolin-4-yl-2H-pyrazol-3-yl)-1H-pyridazin-4-one]
18 | 0.028 | O=c1ccn(-c2ccncc2)nc1-c1ccnn1-c1cccc2cnccc12 [Example 21, 3-(2-Isoquinolin-5-yl-2H-pyrazol-3-yl)-1-pyridin-4-yl-1H-pyridazin-4-one]
19 | 0.035 | O=c1ccn(-c2ccncc2)nc1-c1ccnn1-c1cccc2ncccc12 [Example 22, 1-Pyridin-4-yl-3-(2-quinolin-5-yl-2H-pyrazol-3-yl)-1H-pyridazin-4-one]
20 | 1.21 | O=c1ccn(-c2ccncc2)nc1-c1ccnn1-c1ccnc(Cl)c1 [Example 23, 3-[2-(2-Chloro-pyridin-4-yl)-2H-pyrazol-3-yl]-1-pyridin-4-yl-1H-pyridazin-4-one]
21 | 0.806 | O=c1ccn(-c2ccncc2)nc1-c1ccnn1-c1cccc2cccnc12 [Example 26, 1-Pyridin-4-yl-3-(2-quinolin-8-yl-2H-pyrazol-3-yl)-1H-pyridazin-4-one]
22 | 0.126 | O=c1ccn(-c2ccncc2)nc1-c1ccnn1-c1cccc2ccncc12 [Example 27, 3-(2-Isoquinolin-8-yl-2H-pyrazol-3-yl)-1-pyridin-4-yl-1H-pyridazin-4-one]
23 | 3.23 | CN(C)S(=O)(=O)c1cccc(-n2nccc2-c2nn(-c3ccncc3)ccc2=O)c1 [Example 28, N,N-Dimethyl-3-[5-(4-oxo-1-pyridin-4-yl-1,4-dihydro-pyridazin-3-yl)-pyrazol-1-yl]-benzenesulfonamide]
24 | 0.219 | O=c1ccn(-c2ccncc2)nc1-c1ccnn1-c1cccc(F)c1F [Example 29, 3-[2-(2,3-Difluoro-phenyl)-2H-pyrazol-3-yl]-1-pyridin-4-yl-1H-pyridazin-4-one]
25 | 0.069 | O=c1ccn(-c2ccncc2)nc1-c1ccnn1-c1ccccc1 [Example 30, 3-(2-Phenyl-2H-pyrazol-3-yl)-1-pyridin-4-yl-1H-pyridazin-4-one]
26 | 0.811 | O=c1ccn(-c2ccncc2)nc1-c1ccnn1-c1ccncc1 [Example 31, 1-Pyridin-4-yl-3-(2-pyridin-4-yl-2H-pyrazol-3-yl)-1H-pyridazin-4-one]
27 | 0.15 | O=c1ccn(-c2cccnc2)nc1-c1ccnn1-c1ccc2c(c1)OCO2 [Example 32, 3-(2-Benzo[1,3]dioxol-5-yl-2H-pyrazol-3-yl)-1-pyridin-3-yl-1H-pyridazin-4-one]
28 | 2.94 | O=c1ccn(-c2cccnc2)nc1-c1ccnn1-c1ccccn1 [Example 33, 1-Pyridin-3-yl-3-(2-pyridin-2-yl-2H-pyrazol-3-yl)-1H-pyridazin-4-one]
29 | 0.081 | O=c1ccn(-c2cccnc2)nc1-c1ccnn1-c1ccc2c(c1)OCCO2 [Example 34, 3-[2-(2,3-Dihydro-benzo[1,4]dioxin-6-yl)-2H-pyrazol-3-yl]-1-pyridin-3-yl-1H-pyridazin-4-one]
30 | 0.285 | O=c1ccn(-c2cccnc2)nc1-c1ccnn1-c1cccc(F)c1 [Example 35, 3-[2-(3-Fluoro-phenyl)-2H-pyrazol-3-yl]-1-pyridin-3-yl-1H-pyridazin-4-one]
31 | 0.071 | Cc1cncc(-n2ccc(=O)c(-c3ccnn3-c3ccc4c(c3)OCCO4)n2)c1 [Example 36, 3-[2-(2,3-Dihydro-benzo[1,4]dioxin-6-yl)-2H-pyrazol-3-yl]-1-(5-methyl-pyridin-3-yl)-1H-pyridazin-4-one]
32 | 0.149 | Cc1cncc(-n2ccc(=O)c(-c3ccnn3-c3cccc(F)c3)n2)c1 [Example 37, 3-[2-(3-Fluoro-phenyl)-2H-pyrazol-3-yl]-1-(5-methyl-pyridin-3-yl)-1H-pyridazin-4-one]

Reference: patent US9187455B2, “Substituted pyridazines as PDE10A inhibitors” (Hoffmann-La Roche Inc., priority 2009, dated 2015)
